Experimental data reported in patent US10370355B2, “Tetrahydroisoquinoline derivatives” (UCB Biopharma SPRL, priority 2016, dated 2019).

Target: T1, dopamine D1 receptor (Homo sapiens, UniProt P21728)
T1 construct: host or cells: LMtk (Ltk-) mouse fibroblast cells
Assay: cAMP HTRF potentiation assay (presence of EC20 dopamine)
Format: cell-based
Settings: potentiation of cAMP in presence of EC20 dopamine (1.1 nM); LMtk (Ltk-) mouse fibroblast cells expressing the dopamine D1 receptor
Excerpt: The present assay allows to measure respectively the effects of compounds of the Examples in the absence of dopamine (“activation assay”) and the effects of compounds of the Examples in the presence of dopamine (“potentiation assay”).
The potentiation assay measures the ability of compounds to increase the levels of cAMP produced by a low-threshold concentration of dopamine. The concentration of dopamine used ([EC20]) is designed to produce 20% stimulation compared to the maximal response (100%) seen with increasing the concentration of dopamine. To measure this potentiation we incubate increasing concentrations of the compound with the [EC2O] of dopamine and measure the potentiation as increases in cAMP production. The pEC50 of a compound is the −log 10 of the concentration of the compound which produces 50% of the potentiation of the cAMP levels and the Erel is the relative efficacy, defined as the maximal % potentiation produced by the compound compared to the maximal response produced by increasing concentrations of dopamine (Erel of 1=dopamine maximum response).
Cells were cultured at 37° C. in a humidified atmosphere of 5% CO2. Cells were grown in DMEM-F12+GlutaMAX™-I medium (GIBCO®, Invitrogen, Merelbeke, Belgium) containing 10% fetal bovine serum (BioWhittaker®, Lonza, Verviers, Belgium), 400 μg/mL Geneticin (GIBCO®), 100 IU/mL Penicillin and 100 IU/mL Streptomycin (Pen-Strep solution, BioWhittaker®).
The measurement of changes in intracellular cyclic adenosinemonophopshpate (cAMP) was determined using the HTRF cAMP dynamic assay kit from CisBio (Codolet, France). Using homogenous time-resolved fluoresence technology, the assay is based on competition between native cAMP produced by cells and cAMP labelled with the dye d2. The tracer binding is determined by an anti-cAMP antibody labeled with cryptate. The effects of the compound alone (agonism) was determined by performing the assay in the absence of dopamine, whilst the effect of the compound as a positive allosteric modulator (PAM) was determined in the presence of an EC20 concentration of dopamine. Cells (20,000 per well) are incubated in 384 plates for 1 hour at room temperature in a final volume of 20 μLHBSS (Lonza, with calcium, magnesium and HEPES buffer 20 mM, pH 7.4) containing: isobutyl methylxanthine (Sigma, 0.1 mM final), varying concentrations of test compound (typically […] to 10^−4.5M) in the presence and absence of dopamine (1.1 nM final). The reaction is then terminated and the cells lysed by adding the d2 detection reagent in lysis buffer (10 microL) and the cryptate reagent in lysis buffer (10 microl) according to manufacturer's instructions. This is then incubated for a further 60 min at room temperature and changes in HTRF fluorescent emission ratio determined according to manufacturer's instructions using an Envision plate reader (Perkin Elmer, Zaventem, Belgium) with laser excitation. All incubations were performed in duplicate and results were compared to a concentration-effect curve to dopamine. (10^−11M to 10^−6M).
Data was analyzed using Excel and PRISM (GraphPad Software) to obtain pEC50 and Erel using the 4-parameter logistic equation (DeLean et al, 1978) where Erel is the fitted maximal response of the test compound minus basal expressed as a percentage relative to that obtained with dopamine which was defined as 100%.

T1 sequence (P21728 whole entry): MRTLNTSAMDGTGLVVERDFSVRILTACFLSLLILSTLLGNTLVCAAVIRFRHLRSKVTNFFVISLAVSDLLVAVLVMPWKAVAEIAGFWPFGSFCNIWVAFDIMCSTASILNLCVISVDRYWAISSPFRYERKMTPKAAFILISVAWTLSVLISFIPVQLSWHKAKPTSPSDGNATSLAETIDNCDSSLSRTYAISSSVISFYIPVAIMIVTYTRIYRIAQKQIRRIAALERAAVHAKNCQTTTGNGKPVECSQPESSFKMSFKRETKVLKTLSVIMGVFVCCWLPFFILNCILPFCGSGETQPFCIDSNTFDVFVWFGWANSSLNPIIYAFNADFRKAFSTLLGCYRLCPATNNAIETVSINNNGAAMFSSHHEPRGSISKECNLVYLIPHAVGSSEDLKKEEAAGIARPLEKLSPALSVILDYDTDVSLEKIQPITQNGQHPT

| SMILES | EC50 [µM] |
| --- | --- |
| C[C@H]1c2cccc(C(C)(O)C(F)F)c2CCN1C(=O)Cc1c(Cl)ccc2nn(C)c(Cl)c12 (single isomer, unassigned) [Example 12] | 0.0316 to 0.1 |
| C[C@H]1c2cccc(C(C)(O)C(F)F)c2CCN1C(=O)Cc1c(Cl)ccc2c1c(Cl)nn2C (single isomer, unassigned) [Example 26] | 0.0316 to 0.1 |
